Assay results from PubChem BioAssay (NCI).
Where “and” joins values, the source holds several entries; their conditions need not be identical. Equal values may be shown once.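 In this assay, cells in 96-well plates receive the compound at five concentrations for 48 hours. Endpoints are linearly interpolated between the surrounding concentrations. GI50 = concentration required for 50% inhibition of growth. TGI denotes the concentration required for complete inhibition of growth.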

Key:
Test in all cases: DTP human tumour cell line panel, 48 h
KM12 colon = system: KM12 colon
HT29 colon = system: HT29 colon
SW-620 colon = system: SW-620 colon
SK-MEL-5 melanoma = system: SK-MEL-5 melanoma
IGROV1 ovarian = system: IGROV1 ovarian
CCRF-CEM leukemia = system: CCRF-CEM leukemia
SN12C renal = system: SN12C renal
CAKI-1 renal = system: CAKI-1 renal
SF-295 CNS = system: SF-295 CNS
RXF 393 renal = system: RXF 393 renal

Cc1cc(C)c2c(=O)cc(-c3ccc(F)cc3)[nH]c2n1
TGI (KM12 colon): 49.9 µM
TGI (HT29 colon): > 100 µM
TGI (SW-620 colon): > 100 µM
GI50 (SK-MEL-5 melanoma): 26.2 µM
TGI (SK-MEL-5 melanoma): 75.8 µM
TGI (IGROV1 ovarian): > 100 µM
TGI (CCRF-CEM leukemia): > 100 µM
TGI (SN12C renal): > 100 µM
TGI (CAKI-1 renal): > 100 µM
GI50 (SF-295 CNS): 50.1 µM
TGI (SF-295 CNS): > 100 µM

OC1CCC(COC(c2ccccc2)(c2ccccc2)c2ccccc2)O1 (configuration not stated)
TGI (KM12 colon): 34.3 µM
TGI (HT29 colon): 33.7 µM
TGI (SW-620 colon): 37.2 µM
TGI (SK-MEL-5 melanoma): 30.9 µM
TGI (IGROV1 ovarian): 36.8 µM
TGI (CCRF-CEM leukemia): 35.8 µM
TGI (SN12C renal): 38.6 µM
TGI (CAKI-1 renal): 30.9 µM
TGI (SF-295 CNS): 31.8 µM

O=C(O)c1ccc(NCn2nc(-c3ccccc3O)oc2=S)cc1O
GI50 (KM12 colon): > 100 µM
TGI (KM12 colon): > 100 µM
GI50 (HT29 colon): > 100 µM
TGI (HT29 colon): > 100 µM
GI50 (SW-620 colon): 41.9 µM
TGI (SW-620 colon): > 100 µM
GI50 (RXF 393 renal): > 100000 nM
TGI (RXF 393 renal): > 100 µM
GI50 (SK-MEL-5 melanoma): > 100 µM
TGI (SK-MEL-5 melanoma): > 100 µM
GI50 (IGROV1 ovarian): > 100 µM
TGI (IGROV1 ovarian): > 100 µM
GI50 (SN12C renal): 8.85 µM
TGI (SN12C renal): 60.1 µM
GI50 (CAKI-1 renal): > 100 µM
TGI (CAKI-1 renal): > 100 µM
GI50 (SF-295 CNS): > 100 µM
TGI (SF-295 CNS): > 100 µM

CC[C@@]1(O)C(=O)OCc2c1cc1n(c2=O)Cc2cc3c(OC)cccc3nc2-1
TGI (KM12 colon): 5.86 µM
TGI (HT29 colon): > 43.7 µM
GI50 (SW-620 colon): 0.0405 µM
TGI (SW-620 colon): 5.65 µM
GI50 (RXF 393 renal): 0.0413 nM
GI50 (SK-MEL-5 melanoma): 0.0229 µM
TGI (SK-MEL-5 melanoma): 0.311 µM
GI50 (IGROV1 ovarian): > 100 µM
TGI (IGROV1 ovarian): > 100 µM
GI50 (CCRF-CEM leukemia): 0.00022 µM
GI50 (SN12C renal): 0.00326 µM
TGI (SN12C renal): 3.4 µM
GI50 (CAKI-1 renal): 0.00503 µM and < 0.215 µM
TGI (CAKI-1 renal): 0.238 µM
GI50 (SF-295 CNS): 0.00186 µM
TGI (SF-295 CNS): 2.65 µM

S=C1NC(c2ccccc2)=NC(Cc2ccccc2)(c2ccccc2)N1c1ccccc1 (configuration not stated)
TGI (KM12 colon): > 100 µM
TGI (HT29 colon): > 100 µM
TGI (SW-620 colon): > 100 µM
TGI (RXF 393 renal): > 100 µM
TGI (SK-MEL-5 melanoma): > 100 µM
TGI (IGROV1 ovarian): > 100 µM
TGI (CCRF-CEM leukemia): > 100 µM
TGI (SN12C renal): > 100 µM
TGI (CAKI-1 renal): > 100 µM
TGI (SF-295 CNS): > 100 µM

Cc1cn2c(/C=N/NC3=NCCN3)c(-c3ccc(Cl)c([N+](=O)[O-])c3)nc2s1
GI50 (KM12 colon): 0.872 µM
TGI (KM12 colon): 1.9 µM
GI50 (SW-620 colon): 0.941 µM
TGI (SW-620 colon): 2.46 µM
GI50 (SK-MEL-5 melanoma): 0.989 µM
TGI (SK-MEL-5 melanoma): 2.3 µM
GI50 (SN12C renal): 0.942 µM
TGI (SN12C renal): 1.96 µM
GI50 (CAKI-1 renal): 1.98 µM
TGI (CAKI-1 renal): 10 µM

N#C/C(=C\c1ccc([N+](=O)[O-])cc1)n1nnc2cc(F)c(F)cc21
GI50 (KM12 colon): 2.02 µM
TGI (KM12 colon): 4.39 µM
GI50 (HT29 colon): 1.87 µM
TGI (HT29 colon): 3.64 µM
GI50 (SW-620 colon): 1.73 µM
TGI (SW-620 colon): 3.53 µM
GI50 (RXF 393 renal): 1040 nM
TGI (RXF 393 renal): 2.39 µM
GI50 (SK-MEL-5 melanoma): 1.89 µM
TGI (SK-MEL-5 melanoma): 3.69 µM
GI50 (IGROV1 ovarian): 1.72 µM
TGI (IGROV1 ovarian): 4 µM
GI50 (CCRF-CEM leukemia): 1.94 µM
TGI (CCRF-CEM leukemia): 21.9 µM
GI50 (SN12C renal): 1.77 µM
TGI (SN12C renal): 3.61 µM
GI50 (CAKI-1 renal): 1.54 µM
TGI (CAKI-1 renal): 2.92 µM
GI50 (SF-295 CNS): 2.08 µM
TGI (SF-295 CNS): 5.29 µM

COC1OC(CO)C(O)C(NC(=O)N(C)N=O)C1O (configuration not stated)
TGI (KM12 colon): > 100 µM
TGI (HT29 colon): > 100 µM
TGI (SW-620 colon): > 100 µM
TGI (RXF 393 renal): > 100 µM
TGI (SK-MEL-5 melanoma): > 100 µM
TGI (IGROV1 ovarian): > 100 µM
TGI (CCRF-CEM leukemia): > 100 µM
TGI (SN12C renal): > 100 µM
TGI (CAKI-1 renal): > 100 µM
TGI (SF-295 CNS): > 100 µM

CC(=O)NS(=O)(=O)c1ccc(-n2nc(-c3ccccc3)cc2-c2cc(O)ccc2O)cc1
GI50 (KM12 colon): > 100 µM
TGI (KM12 colon): > 100 µM
GI50 (HT29 colon): > 100 µM
TGI (HT29 colon): > 100 µM
GI50 (SW-620 colon): > 100 µM
TGI (SW-620 colon): > 100 µM
GI50 (SK-MEL-5 melanoma): > 100 µM
TGI (SK-MEL-5 melanoma): > 100 µM
GI50 (IGROV1 ovarian): > 100 µM
TGI (IGROV1 ovarian): > 100 µM
GI50 (CCRF-CEM leukemia): > 100 µM
TGI (CCRF-CEM leukemia): > 100 µM
GI50 (SN12C renal): > 100 µM
TGI (SN12C renal): > 100 µM
GI50 (CAKI-1 renal): > 100 µM
TGI (CAKI-1 renal): > 100 µM
GI50 (SF-295 CNS): > 100 µM
TGI (SF-295 CNS): > 100 µM

C#CCOCCCC(=O)O
TGI (HT29 colon): > 100 µM
TGI (SW-620 colon): > 100 µM
TGI (RXF 393 renal): > 100 µM
TGI (SK-MEL-5 melanoma): > 100 µM
TGI (IGROV1 ovarian): > 100 µM
TGI (CCRF-CEM leukemia): > 100 µM
TGI (SN12C renal): > 100 µM
TGI (CAKI-1 renal): > 100 µM
TGI (SF-295 CNS): > 100 µM

CSc1nc(SC)c2c(C)cn(Cc3ccccc3)c2n1
TGI (KM12 colon): > 100 µM
TGI (HT29 colon): > 100 µM
TGI (SW-620 colon): > 100 µM
TGI (SK-MEL-5 melanoma): > 100 µM
TGI (IGROV1 ovarian): > 100 µM
TGI (CCRF-CEM leukemia): > 100 µM
TGI (SN12C renal): > 100 µM
TGI (CAKI-1 renal): > 100 µM
TGI (SF-295 CNS): > 100 µM

O=C1C2=C(c3ccccc31)C(c1ccccc1Cl)NC(=S)N2 (configuration not stated)
TGI (KM12 colon): > 100 µM
TGI (HT29 colon): > 100 µM
TGI (SW-620 colon): > 100 µM
TGI (SK-MEL-5 melanoma): 46 µM
TGI (IGROV1 ovarian): > 100 µM
TGI (CCRF-CEM leukemia): > 100 µM
TGI (SN12C renal): > 100 µM
TGI (CAKI-1 renal): > 100 µM
TGI (SF-295 CNS): > 100 µM

O=C(O)c1cc(C(=O)C(=O)c2cc(C(=O)O)c(O)c3ccccc23)c2ccccc2c1O
TGI (KM12 colon): > 100 µM
TGI (HT29 colon): > 100 µM
TGI (SW-620 colon): > 100 µM
TGI (RXF 393 renal): > 100 µM
TGI (SK-MEL-5 melanoma): > 100 µM
TGI (IGROV1 ovarian): > 100 µM
TGI (SN12C renal): > 100 µM
TGI (CAKI-1 renal): > 100 µM
TGI (SF-295 CNS): > 100 µM

C=CCC1=C2CCCCC2CCC1=O (configuration not stated)
TGI (KM12 colon): > 100 µM
TGI (SW-620 colon): > 100 µM
TGI (RXF 393 renal): > 100 µM
TGI (SK-MEL-5 melanoma): > 100 µM
TGI (IGROV1 ovarian): > 100 µM
TGI (CCRF-CEM leukemia): > 100 µM
TGI (SN12C renal): > 100 µM
TGI (CAKI-1 renal): > 100 µM
TGI (SF-295 CNS): > 100 µM

O=C(O)COc1ccc2c3c1C(=O)CCC3CO2 (configuration not stated)
TGI (KM12 colon): > 100 µM
TGI (HT29 colon): > 100 µM
TGI (SW-620 colon): > 100 µM
TGI (SK-MEL-5 melanoma): > 100 µM
TGI (IGROV1 ovarian): > 100 µM
TGI (CCRF-CEM leukemia): > 100 µM
TGI (SN12C renal): > 100 µM
TGI (CAKI-1 renal): > 100 µM
TGI (SF-295 CNS): > 100 µM

CCOC(=O)c1sc(Nc2cc(Cl)ccc2Cl)nc1C
TGI (KM12 colon): > 100 µM
TGI (HT29 colon): > 100 µM
TGI (SW-620 colon): > 100 µM
TGI (RXF 393 renal): > 100 µM
TGI (IGROV1 ovarian): > 100 µM
TGI (SN12C renal): > 100 µM
TGI (SF-295 CNS): > 100 µM

Cn1cnc([N+](=O)[O-])c1Sc1nccn1-c1ccccc1
TGI (KM12 colon): > 100 µM
TGI (HT29 colon): > 100 µM
TGI (SW-620 colon): > 100 µM
TGI (SK-MEL-5 melanoma): > 100 µM
TGI (IGROV1 ovarian): > 100 µM
TGI (CCRF-CEM leukemia): > 100 µM
TGI (SN12C renal): > 100 µM
TGI (CAKI-1 renal): > 100 µM
TGI (SF-295 CNS): > 100 µM

COC(=O)c1oc([N+](=O)[O-])c(-c2ccccc2)c1-c1ccccc1
TGI (KM12 colon): > 100 µM
TGI (HT29 colon): > 100 µM
TGI (SW-620 colon): > 100 µM
TGI (SK-MEL-5 melanoma): > 100 µM
TGI (IGROV1 ovarian): > 100 µM
TGI (CCRF-CEM leukemia): > 100 µM
TGI (SN12C renal): > 100 µM
TGI (CAKI-1 renal): > 100 µM
TGI (SF-295 CNS): > 100 µM

COC(=O)CC12CC(NC(=O)c3csc([C@@H](C[C@H](C(C)C)N(C)C(=O)[C@@H](NC(=O)[C@H]4CCCCN4C)C(C)C)OC(C)=O)n3)(C1)C2
GI50 (KM12 colon): 0.00441 µM and 0.00939 µM
TGI (KM12 colon): > 33.3 µM
GI50 (HT29 colon): 0.00364 µM and 0.0055 µM
TGI (HT29 colon): > 33.3 µM
GI50 (SW-620 colon): 0.0035 µM and 0.0102 µM
TGI (SW-620 colon): > 33.3 µM
GI50 (SK-MEL-5 melanoma): 0.00191 µM and 0.00412 µM
TGI (SK-MEL-5 melanoma): 0.0487 µM and 0.074 µM
GI50 (IGROV1 ovarian): 0.00917 µM and 0.0162 µM
TGI (IGROV1 ovarian): > 33.3 µM
GI50 (CCRF-CEM leukemia): 0.0036 µM and 0.00718 µM
TGI (CCRF-CEM leukemia): > 33.3 µM
GI50 (SN12C renal): 0.00446 µM and 0.0202 µM
TGI (SN12C renal): > 33.3 µM
GI50 (SF-295 CNS): 0.00327 µM and 0.00942 µM
TGI (SF-295 CNS): > 33.3 µM
